Assay results: US20150315241A1, “Antibiotic Peptides” (priority 2007, published 2015)
Values after ≈ are worked out from the molar mass of the structure shown. Where a SMILES comes first, the peptide text is derived from it. Where no end group is shown, it is not given here. [ ]: non-standard residue; d: D form. NMeL = CN[C@@H](CC(C)C)C(=O)O; Orn = NCCC[C@H](N)C(=O)O

Experiments:
[1] = system: E. coli BL 21 AI; test: Growth inhibition assay (MIC); assay type: cell-based, Escherichia coli; details: 1% TSB, 37° C., 20 hrs
In short: (§1)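 Two-fold serial dilution in 1% TSB, final 125 μg/mL to 60 ng/mL; inoculum 5×10^6 CFU/mL (before 1:1 mixing with peptide). Incubated 20 hrs at 37° C., growth read as absorbance at 595 nm, in triplicate with sterile water as negative control.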

[2] = system: E. coli D31; assay type: cell-based, Escherichia coli; details: D31, 20 h
In short: (§2)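 Growth is measured at 595 nm after the bacteria, set to 5×10^6 CFU/mL in 1% TSB, sit with two-fold dilutions of peptide for 20 hrs at 37° C. Final peptide spans 125 μg/mL to 60 ng/mL.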

[3] = system: S. enterica subsp. Enterica serovar. typhi G10215 ATCC 700408; assay type: cell-based, Salmonella enterica; details: ATCC 700408, 20 h
In short: as §2

[4] = system: E. coli 45849; test: Growth inhibition assay (MIC); assay type: cell-based, Escherichia coli; details: multidrug resistant strain; 1% TSB, 37° C., 20 hrs
Protocol: (§3) The minimal inhibition concentrations (MIC) of the apidaecin-derived peptides and peptide-derivatives were determined by a growth inhibition assay using a serial peptide dilution in sterilized round-bottom 96-well plates (polystyrene, U-bottom, Greiner Bio-One GmbH) with a final volume of 100 μL per well. The bacteria, e.g., E. coli BL21 A1, were grown in nutrient broth (NB, Carl Roth GmbH+Co. KG, Karlsruhe, Germany) at 37° C. over night. To each well of the 96-well plate, 50 μL of the overnight culture adjusted to 5×10^6 CFU/mL in 1% TSB were added. Lyophilized peptides and peptidomimetics were dissolved in 1% TSB (tryptic soy broth) or water to give a final concentration of 250 μg/mL. Fifty μL of the peptide or peptidomimetics solution were added to the first well of a row on the plate and mixed. Fifty μL of the first well containing the peptide solution were transferred to the second well, mixed and again 50 μL transferred to the next well and so on. Thereby, a two-fold dilution series was obtained starting at 250 μg/mL in the first well down to 120 ng/mL in the 12th well of a row giving a final peptide or peptidomimetics concentration from 125 μg/mL (well 1) to 60 ng/mL (well 12). Plates were incubated at 37° C. for 20 hrs. The absorbance was measured at 595 nm using a TECAN micro plate spectrophotometer (Tecan, Germany). All peptides and peptidomimetics were measured in triplicates. Sterilized water was used as a negative control.
(§4) The following multidrug resistant bacteria strains were tested: • Eschericha coli 45849 and D31, • Klebsiella pneumoniae 123132 and K6, • Salmonella typhi S5 and Salmonella enterica subsp. enterica serovar Typhimurium (ATCC 700408), • Rhizobium radiobacter (ATCC 15955 deposited as Agrobacterium tumefaciens).

[5] = system: R. radiobatter ATCC 15955; test: Growth inhibition assay (MIC); assay type: cell-based, Rhizobium radiobacter; details: multidrug resistant strain; 1% TSB, 37° C., 20 hrs
Protocol: as §3, §4

[6] = system: K. Pneumonia K6, ATCC 700603; test: Growth inhibition assay (MIC); assay type: cell-based, Klebsiella pneumoniae; details: multidrug resistant strain; 1% TSB, 37° C., 20 hrs
In short: as §2

[7] = system: K. Pneumonia 123132; test: Growth inhibition assay (MIC); assay type: cell-based, Klebsiella pneumoniae; details: multidrug resistant strain; 1% TSB, 37° C., 20 hrs
In short: as §2

[8] = system: S. typhi S5; assay type: cell-based, Salmonella typhi; details: S5, 20 h
Protocol: as §3, §4

[9] = system: M. luteus ATCC 10240; assay type: cell-based, Micrococcus luteus; details: ATCC 10240, 20 h
In short: as §1

[10] = in vitro; assay type: in vitro ADME, mouse; details: 25% aqueous mouse serum, 37° C.; read-out: Half-life time
Protocol: Serum stability studies were carried out in duplicate as described by Hoffmann et al.. Briefly, 28 μL of an aqueous peptide or peptidomimetics solution (0.5 mg/mL) was added to 0.2 mL freshly pooled 25% mouse serum (Sigma-Aldrich GmbH, Taufkirchen, Germany) in water. The mixtures were incubated at 37° C. under gentle stirring. The proteins were precipitated with 40 μL of 15% aqueous TCA after incubation times of 0, 0.5, 1, 2, 4 and 6 h at 0° C. for 20 min before centrifuged (13500×G) at 4° C. for 5 min. The supernatants of all samples (240 μL) were neutralized with 1 mol/L aqueous NaOH and immediately stored at −20° C. The supernatants were analyzed by RP-HPLC using a linear acetonitrile gradient as described above with 0.1% TFA as ion pair reagent. Collected fractions of the main peaks were further analyzed by tandem mass spectrometry (MALDI-TOF/TOF-MS, 4700 Proteomics Analyzer, Applied Biosystems GmbH, Weiterstadt, Germany) in positive ion reflector mode using α-cyanohydroxycinnamic acid (50% CH3CN in 0.1% aqueous TFA) as matrix to identify the degradation products of the peptides and peptidomimetics, i.e., metabolites, at the different time points. Serum control samples consisted of 200 μL of pooled 25% mouse serum in water, which were also precipitated with 40 μL 15% aqueous TCA, as described before. Peptide reference samples consisted of 28 μL of the peptide stock solution diluted in 0.2 mL water and 40 μL of 15% aqueous trichloroacetic acid (TCA).

| Compound | MIC E. coli BL 21 AI [1] | MIC E. coli D31 [2] | MIC S. enterica subsp. Enterica serovar. typhi G10215 ATCC 700408 [3] | MIC E. coli 45849 [4] | MIC R. radiobatter ATCC 15955 [5] | MIC K. Pneumonia K6, ATCC 700603 [6] | MIC K. Pneumonia 123132 [7] | MIC S. typhi S5 [8] | MIC M. luteus ATCC 10240 [9] | half-life at 0.061 mg/mL [10] |
| --- | --- | --- | --- | --- | --- | --- | --- | --- | --- | --- |
| GNNRPVYIPRPRPPHPRLV-NH2 [compound 25] | 3.91 µg/mL | 64 µg/mL | 1 µg/mL | 1 µg/mL | 0.65 µg/mL | 16 µg/mL | 16 µg/mL | 2 µg/mL | 1.95 µg/mL |  |
| GNNRPVYIPQPRPPHPRPIRV-NH2 [compound 110] |  |  |  |  |  |  |  |  |  | 6 h |
| GNNRPVYIPQPRPPHPRI [compound 1] |  |  |  |  |  |  |  |  |  | 2 h |
| CC[C@H](C)[C@H](NC(=O)[C@H](Cc1ccc(O)cc1)NC(=O)[C@@H](NC(=O)[C@@H]1CCCN1C(=O)[C@H](CCCNC(=N)N)NC(=O)[C@H](CC(N)=O)NC(=O)[C@H](CC(N)=O)NC(=O)[C@H](CCCN)NC(C)=O)C(C)C)C(=O)N1CCC[C@H]1C(=O)N[C@@H](CCC(N)=O)C(=O)N1CCC[C@H]1C(=O)N[C@@H](CCCNC(=N)N)C(=O)N1CCC[C@H]1C(=O)N1CCC[C@H]1C(=O)N[C@@H](Cc1c[nH]cn1)C(=O)N1CCC[C@H]1C(=O)N[C@@H](CCCNC(=N)N)C(=O)N[C@@H](Cc1ccccc1)C(N)=O [compound 41] (Ac-[Orn]NNRPVYIPQPRPPHPRF-NH2) |  | >128 µg/mL | 8 µg/mL (≈ 3.57 µM) | 4 µg/mL (≈ 1.79 µM) | 5.25 µg/mL (≈ 2.34 µM) | 128 µg/mL (≈ 57.1 µM) | 32 µg/mL (≈ 14.3 µM) | 8 µg/mL (≈ 3.57 µM) |  |  |
| CC[C@H](C)[C@H](NC(=O)[C@H](Cc1ccc(O)cc1)NC(=O)[C@@H](NC(=O)[C@@H]1CCCN1C(=O)[C@H](CCCNC(=N)N)NC(=O)[C@H](CC(N)=O)NC(=O)[C@H](CC(N)=O)NC(=O)[C@H](CCCN)NC(C)=O)C(C)C)C(=O)N1CCC[C@H]1C(=O)N[C@@H](CCCNC(=N)N)C(=O)N1CCC[C@H]1C(=O)N[C@@H](CCCNC(=N)N)C(=O)N1CCC[C@H]1C(=O)N1CCC[C@H]1C(=O)N[C@@H](Cc1c[nH]cn1)C(=O)N1CCC[C@H]1C(=O)N[C@@H](CCCNC(=N)N)C(=O)N[C@@H](CC(C)C)C(=O)OC [compound 48] (Ac-[Orn]NNRPVYIPRPRPPHPRL-OMe) |  | 64 µg/mL (≈ 28.4 µM) | 16 µg/mL (≈ 7.11 µM) | 4 µg/mL (≈ 1.78 µM) | 1.3 µg/mL (≈ 0.578 µM) | 128 µg/mL (≈ 56.9 µM) | 32 µg/mL (≈ 14.2 µM) | 4 µg/mL (≈ 1.78 µM) |  |  |
| GNNRPVYIPQPRPPHPRL [compound 2] |  |  |  |  |  |  |  |  |  | 2 h |
| CC[C@H](C)[C@H](NC(=O)[C@H](Cc1ccc(O)cc1)NC(=O)[C@@H](NC(=O)[C@@H]1CCCN1C(=O)[C@H](CCCNC(=N)N)NC(=O)[C@H](CC(N)=O)NC(=O)[C@H](CC(N)=O)NC(=O)CN)C(C)C)C(=O)N1CCC[C@H]1C(=O)N[C@@H](CCCNC(=N)N)C(=O)N1CCC[C@H]1C(=O)N[C@@H](CCCNC(=N)N)C(=O)N1CCC[C@H]1C(=O)N1CCC[C@H]1C(=O)N[C@@H](Cc1c[nH]cn1)C(=O)N1CCC[C@H]1C(=O)N[C@@H](CCCNC(=N)N)C(=O)N(C)[C@@H](CC(C)C)C(N)=O [compound 34] (H-GNNRPVYIPRPRPPHPR[NMeL]-NH2) |  | 8 µg/mL (≈ 3.72 µM) | 4 to 8 µg/mL | 4 µg/mL (≈ 1.86 µM) | 1.3 µg/mL (≈ 0.605 µM) | 32 µg/mL (≈ 14.9 µM) | 32 µg/mL (≈ 14.9 µM) | 8 µg/mL (≈ 3.72 µM) |  |  |
